# Measurements taken from publication PMC11077815, “Synthesis and antitumor activity of dolutegravir derivatives bearing 1,2,3-triazole moieties” (BMC Chemistry, 2024).
# Experiments:
# A549 = assay: CCK8 cell viability assay, A549; type: cell-based, Human; conditions: for Cell viability (100%): A549, 20 µM, 48 h, CCK8, control = 100%; for IC50: A549, 48 h, CCK8, mean ± SE
# Procedure: (§1) At first, CCK8 assay was carried out to evaluate the anti-proliferative activity of dolutegravir-1,2,3-triazole derivatives against different cancer cell lines. The results of cell viability of three lung cancer cell lines A549, PC-9 and H460 in the presence of compounds 9 and 10 are summarized in Table 2. Cells were treated with different compounds at the concentration of 20 µM for 48 h. […] Human lung cancer cell lines A549, PC-9 and H460 were all obtained from ATCC. Cells were cultured in DMEM or RPMI 1640 medium containing 10% FBS and 1% penicillin/streptomycin at 37 °C with a 5% CO2-humidified atmosphere. CCK8 assay was used to measure cell viability. Cells with a density of 1 × 10^4 cells/well were seeded on the 96-well plates. After adhesion, cells were treated with different diluted compounds or vehicle control DMSO and continue cultured for 48 h. Then, CCK8 reagent was added for one hour incubation at 37 °C with 5% of CO2. Absorbance was measured using a microplate spectrophotometer (Thermo) at 450 nm. The ratio of cell viability of control was taken as 100%. […] Then IC50 of the compounds were investigated using the prism statistical software.
# [1] = test system: HRM (Human Renal Mesangial) cell line; assay: CCK8 cell viability assay, HRM normal cells (toxicity control); type: cell-based; conditions: HRM normal human cells, 48 h, CCK8, mean ± SE
# Procedure: Based on these preliminary results, compounds 9c, 9e, 9f, 9i, 9k, 9 L, 9p, 9q, 9t, 9u, 9v, 9w, 10c, 10e which were effective to most of the cell lines were chosen for the measurement of the half-maximal inhibitory concentration (IC50). […] HRM (Human Renal Mesangial) cell line was used as a control to study the toxicity of these compounds against normal human cells.
# CCK8 assay was used to measure cell viability. Cells with a density of 1 × 10^4 cells/well were seeded on the 96-well plates. After adhesion, cells were treated with different diluted compounds or vehicle control DMSO and continue cultured for 48 h. Then, CCK8 reagent was added for one hour incubation at 37 °C with 5% of CO2. Absorbance was measured using a microplate spectrophotometer (Thermo) at 450 nm. The ratio of cell viability of control was taken as 100%. […] Then IC50 of the compounds were investigated using the prism statistical software.
# PC-9 = assay: CCK8 cell viability assay, PC-9; type: cell-based, Human; conditions: for Cell viability (100%): PC9, 20 µM, 48 h, CCK8, control = 100%; for IC50: PC9, 48 h, CCK8, mean ± SE
# Procedure: as §1
# H460 = assay: CCK8 cell viability assay, H460; type: cell-based, Human; conditions: for Cell viability (100%): H460, 20 µM, 48 h, CCK8, control = 100%; for IC50: H460, 48 h, CCK8, mean ± SE
# Procedure: as §1
SMILES,Cell viability (100%) (A549) [%],IC50 (A549) [µM],IC50 [1] [µM],Cell viability (100%) (PC-9) [%],IC50 (PC-9) [µM],Cell viability (100%) (H460) [%],IC50 (H460) [µM]
COc1c2n(cc(C(=O)Nc3cccc(-c4cn(-c5cccc(C)c5)nn4)c3)c1=O)C[C@@H]1OCC[C@@H](C)N1C2=O [Compound 9f],33.47,27.8 ± 0.56,> 50,8.80,4.67 ± 0.26,39.20,19.6 ± 0.32
COc1ccc(-n2cc(-c3cccc(NC(=O)c4cn5c(c(OC)c4=O)C(=O)N4[C@H](C)CCO[C@H]4C5)c3)nn2)cc1OC [Compound 9j],87.42,,,85.93,,92.89,
COc1c2n(cc(C(=O)Nc3cccc(-c4cn(-c5ccccc5Cl)nn4)c3)c1=O)C[C@@H]1OCC[C@@H](C)N1C2=O [Compound 9v],54.06,> 50,> 50,47.42,11.6 ± 0.48,38.13,16.2 ± 1.29
COc1cccc(Cn2cc(-c3cccc(NC(=O)c4cn5c(c(OC)c4=O)C(=O)N4[C@H](C)CCO[C@H]4C5)c3)nn2)c1 [Compound 10d],89.00,,,83.17,,77.21,
COc1c2n(cc(C(=O)Nc3cccc(-c4cn(-c5ccccc5I)nn4)c3)c1=O)C[C@@H]1OCC[C@@H](C)N1C2=O [Compound 9w],57.94,33.7 ± 0.68,> 50,55.21,9.94 ± 0.36,30.63,14.7 ± 2.83
COc1c2n(cc(C(=O)Nc3cccc(-c4cn(Cc5ccccc5C(F)(F)F)nn4)c3)c1=O)CC1OCCC(C)N1C2=O (stereo not drawn) [Compound 10 h],77.72,,,66.77,,28.10,
COc1c2n(cc(C(=O)Nc3cccc(-c4cn(-c5ccccc5F)nn4)c3)c1=O)C[C@@H]1OCC[C@@H](C)N1C2=O [Compound 9a],95.90,,,52.03,,47.20,
COc1c2n(cc(C(=O)Nc3cccc(-c4cn(Cc5cccc(Br)c5)nn4)c3)c1=O)C[C@@H]1OCC[C@@H](C)N1C2=O [Compound 10e],96.13,> 50,> 50,49.85,10.1 ± 0.71,28.88,9.44 ± 1.53
COc1c2n(cc(C(=O)Nc3cccc(-c4cn(Cc5ccccc5F)nn4)c3)c1=O)CC1OCCC(C)N1C2=O (stereo not drawn) [Compound 10f],82.22,,,61.10,,32.43,
COc1c2n(cc(C(=O)Nc3cccc(-c4cn(-c5ccccc5C)nn4)c3)c1=O)C[C@@H]1OCC[C@@H](C)N1C2=O [Compound 9s],82.07,,,65.73,,48.37,
COc1c2n(cc(C(=O)Nc3cccc(-c4cn(Cc5cc(Br)cc(Br)c5)nn4)c3)c1=O)C[C@@H]1OCC[C@@H](C)N1C2=O [Compound 10a],87.40,,,103.57,,82.32,
CCc1ccc(-n2cc(-c3cccc(NC(=O)c4cn5c(c(OC)c4=O)C(=O)N4[C@H](C)CCO[C@H]4C5)c3)nn2)cc1 [Compound 9 m],65.08,,,63.65,,62.63,
COc1c2n(cc(C(=O)Nc3cccc(-c4cn(-c5ccccc5C(F)(F)F)nn4)c3)c1=O)C[C@@H]1OCC[C@@H](C)N1C2=O [Compound 9c],9.48,9.06 ± 0.88,> 50,13.91,4.03 ± 0.59,32.97,11.4 ± 0.59
COc1cc([N+](=O)[O-])ccc1-n1cc(-c2cccc(NC(=O)c3cn4c(c(OC)c3=O)C(=O)N3[C@H](C)CCO[C@H]3C4)c2)nn1 [Compound 9b],92.60,,,104.86,,98.64,
COc1ccc(-n2cc(-c3cccc(NC(=O)c4cn5c(c(OC)c4=O)C(=O)N4C(C)CCOC4C5)c3)nn2)cc1 (stereo not drawn) [Compound 9x],69.21,,,78.11,,108.05,
COc1c2n(cc(C(=O)Nc3cccc(-c4cn(-c5cc(C(F)(F)F)ccc5C(F)(F)F)nn4)c3)c1=O)C[C@@H]1OCC[C@@H](C)N1C2=O [Compound 9q],54.85,13.6 ± 1.79,> 50,18.17,6.78 ± 0.31,17.63,16.5 ± 0.57
COc1c2n(cc(C(=O)Nc3cccc(-c4cn(-c5ccc(C(C)(C)C)cc5)nn4)c3)c1=O)C[C@@H]1OCC[C@@H](C)N1C2=O [Compound 9n],67.60,,,59.44,,24.58,
COc1c2n(cc(C(=O)Nc3cccc(-c4cn(-c5ccc(F)cc5)nn4)c3)c1=O)C[C@@H]1OCC[C@@H](C)N1C2=O [Compound 9 g],91.65,,,88.64,,97.85,
COc1c2n(cc(C(=O)Nc3cccc(-c4cn(-c5ccccc5)nn4)c3)c1=O)C[C@@H]1OCC[C@@H](C)N1C2=O [Compound 9o],78.59,,,94.56,,87.72,
CCOc1ccc(-n2cc(-c3cccc(NC(=O)c4cn5c(c(OC)c4=O)C(=O)N4[C@H](C)CCO[C@H]4C5)c3)nn2)cc1 [Compound 9 h],77.55,,,71.96,,52.87,
COc1c2n(cc(C(=O)Nc3cccc(-c4cn(Cc5ccccc5C)nn4)c3)c1=O)CC1OCCC(C)N1C2=O (stereo not drawn) [Compound 10 g],71.58,,,54.61,,35.98,
COc1c2n(cc(C(=O)Nc3cccc(-c4cn(-c5c(C)cc(C)cc5C)nn4)c3)c1=O)C[C@@H]1OCC[C@@H](C)N1C2=O [Compound 9z],91.32,,,73.07,,55.57,
COc1c2n(cc(C(=O)Nc3cccc(-c4cn(-c5cc(C(F)(F)F)cc(C(F)(F)F)c5)nn4)c3)c1=O)C[C@@H]1OCC[C@@H](C)N1C2=O [Compound 9r],90.73,,,98.55,,117.07,
COc1c2n(cc(C(=O)Nc3cccc(-c4cn(-c5ccc(C)cc5)nn4)c3)c1=O)C[C@@H]1OCC[C@@H](C)N1C2=O [Compound 9y],85.43,,,79.67,,94.78,
COc1c2n(cc(C(=O)Nc3cccc(-c4cn(Cc5ccccc5)nn4)c3)c1=O)C[C@@H]1OCC[C@@H](C)N1C2=O [Compound 10b],87.18,,,96.85,,55.00,
COc1c2n(cc(C(=O)Nc3cccc(-c4cn(-c5ccc(C(F)(F)F)cc5)nn4)c3)c1=O)C[C@@H]1OCC[C@@H](C)N1C2=O [Compound 9d],82.37,,,105.15,,69.71,
